Laboratory results published in publication PMC8667045, “Into Deep Water: Optimizing BCL6 Inhibitors by Growing into a Solvated Pocket” (Journal of Medicinal Chemistry, 2021).
In brackets after ≈: the same amount, converted by molar mass. Several values for one entry are separate records, joined by “and”; a condition that tells them apart may be missing. Equal values may be shown once. Read-outs that look alike come from different tables or passages of the source.

Legend:
HPLC solubility assay = type: physicochemical; settings: PBS buffer, PBS pH 7.4, 1% DMSO, room temperature
Experimental: 3. Supplementary experimental: physicochemical assays […]
3.2 HPLC solubility assay
DMSO. Following shaking of the suspension on a Bohdan Shaker at 500 rpm for 2 hours at room […]
200 µL of the supernatant was transferred to a 2 mL Agilent vial containing 50 µL of DMSO (Sigma […]
detection using an external standard which was prepared by pipetting 10 µL of the same batch of […]
The detail of the HPLC method is as following: chromatographic separation at 30°C is carried out over a 5 minute gradient elution method from 90:10 to 10:90 water:methanol (both modified with 0.1% formic acid) at a flow rate of 1.5 mL/min. Calibration curve is prepared by injecting 0.5, 2.5, and 5 µL of compound external standard.
62.5 µL of compound solubility sample.

BCL6 BTB domain [1] = target: T1, BCL6 BTB domain (Homo sapiens, UniProt P41182); assay: biochemical; settings: for BCL6 TR-FRET pIC50 mean: mean of n replicates
Experimental: Supplementary experimental: protein production, purification and crystallography
3C protease cleavage site.
used without cleaving the tag, as a 6His was needed to bind to the anti-6His-Terbium antibody. For
For both plasmid constructs described above, transformed BL21-AI E. coli cells were grown in LB
carried out at 18 °C for 18 hours. Cells were harvested by centrifugation (5500 g for 30 minutes at 4
oC) and stored at -80 °C.
Cells were re-suspended in a buffer composed of 20 mM Tris pH 8, 250 mM NaCl, 1 mM MgCl2, 0.5
Cells were lysed by sonication followed by centrifugation at 21,000 g for 45 minutes at 4 °C. […]
The final protein was assessed for purity
and molar mass by SDS-PAGE and high-resolution mass spectrometry, respectively.
(§1) directly eluted from the HisTrap FF column without HRV-3C treatment, and submitted to Superdex75
gel filtration as described above. […]
2. Supplementary experimental: biological assay conditions
IC50 values were determined using
a sigmoidal four-parameter logistic fit equation.

BCL6 BTB domain [2] = target: T1, BCL6 BTB domain; assay: Rapid X-ray screen: ligand density in extended pocket of BCL6 BTB domain; set-up: made in house; host or cells: E. coli BL21-AI; settings: crystals soaked with compound
Text: Furthermore, we speculated that these represent better starting points since the substituent can be modified further to derive additional interactions and more completely fill the extended pocket. […] Instead, we just checked for the presence of ligand density and, in particular, for electron density in the extended pocket.
as §1
gel filtration as described above.
NH2. A stock solution of WVIP peptide at 100 mM in 100 % DMSO was added to a 2 mg/mL solution
This mixture was then concentrated to a final
protein concentration of 4 mg/mL using a centrifugal concentrator with a 3 kDa molecular weight
complex plus 1 μL of a crystallisation solution consisting of 1 M K 2HPO4, 0.7 M NaH2PO4, 75 mM
drops, followed by 10-120 minutes incubation. Crystals were then cryo-protected in a solution
composed of the crystallisation reagent supplemented with 30 % ethylene glycol and cryo-cooled in
concentrated to a final protein concentration of 10 mg/mL using a centrifugal concentrator with a 3
kDa molecular weight cut-off. Crystals were grown at 18 °C in hanging drops composed of 1.5 μL of
and 0.80 M Na/K Tartrate, against 300 μL of crystallisation solution.
and compounds were soaked as described above for the other construct. Crystals were then cryo-
protected in a solution composed of the crystallisation reagent supplemented with 30 % ethylene
glycol and cryo-cooled in liquid nitrogen.
1.5 Crystallographic data collection, processing and refinement
X-ray data were collected at Diamond Light Source, Harwell campus, Oxfordshire, UK, on beamlines
Research, London, UK, on a Rigaku FRX-AFC11-VariMax Cu-VHF-Pilatus300K. Crystals obtained with […]

[3] = PAMPA passive permeability pH 7.4; settings: for PAMPA7.4: pH 7.4, passive permeability Pe
Measured logD7.4 = type: physicochemical; settings: pH 7.4
NMR solubility assay = type: physicochemical; settings: HEPES buffer, 5% DMSO, room temperature
Experimental: 3. Supplementary experimental: physicochemical assays
The plate was then sealed and incubated at room temperature for 20 hours, without shaking. The plate was centrifuged again for 1 minute at […]
spectrometer equipped with a 5 mm TCI-CryoProbe. […]
deuterated solvent. […] All NMR data were acquired at the […]
contained 16k time-domain data points. Relaxation delay was set to 20 sec. […]

[4] = TR-FRET IC50 individual replicates, single replicates, italic values used 10nM BCL6, otherwise 1nM BCL6
[5] = read-out: BCL6 TR-FRET Geo Mean IC50, geometric mean of n replicates, supplement
[6] = read-out: TR-FRET IC50, tables and figures
[7] = read-out: TR-FRET IC50 individual replicates, single replicates, italic values used 10nM BCL6, otherwise 1nM BCL6

| SMILES | solubility at 2 h (HPLC solubility assay) [µM] | IC50 (BCL6 BTB domain [1]; [4]) | BCL6 TR-FRET pIC50 mean (BCL6 BTB domain [1]) | IC50 (BCL6 BTB domain [1]; [5]) [nM] | IC50 (BCL6 BTB domain [1]; [6]) | IC50 (BCL6 BTB domain [1]; [7]) | Ligand density in extended pocket (BCL6 BTB domain [2]) | Papp ([3]; PAMPA, pH 7.4) [×10⁻⁶ cm/s] | PAMPA7.4 [3] | logD (Measured logD7.4) | solubility at 20 h (NMR solubility assay) [µM] |
| --- | --- | --- | --- | --- | --- | --- | --- | --- | --- | --- | --- |
| Cn1c(=O)n(C)c2cc(Nc3ccnc(Cl)c3C#N)ccc21 [Compound 1] | 16 (≈ 5.02 µg/mL) | – | – | – | – | – | – | – | – | – | – |
| Cn1c(=O)ccc2cc(Nc3ccnc(Cl)c3C#N)ccc21 [Compound 2, 2-Chloro-4-((1-methyl-2-oxo-1,2-dihydroquinolin-6-yl)amino)nicotinonitrile] | 12 (≈ 3.73 µg/mL) | 2280 nM and 4290 nM and 4070 nM and 1380 nM | 5.57 and 5.565 | 2720 | 2700 nM and 2720 nM | – | – | – | – | – | – |
| N#Cc1c(Nc2ccc3[nH]c(=O)cc(N4CCOCC4)c3c2)ccnc1Cl [Compound 8d, 2-Chloro-4-((4-morpholino-2-oxo-1,2-dihydroquinolin-6-yl)amino)nicotinonitrile] | – | 2660 nM and 2560 nM and 1470 nM | 5.67 and 5.672 | 2130 | 2130 nM | 2100 nM and 2080 nM | No | – | – | – | – |
| Cn1cc(-c2cc(=O)[nH]c3ccc(Nc4ccnc(Cl)c4C#N)cc23)cn1 [Compound 8e, 2-Chloro-4-((4-(1-methyl-1H-pyrazol-4-yl)-2-oxo-1,2-dihydroquinolin-6-yl)amino)nicotinonitrile] | – | 1520 nM and 2190 nM | 5.74 and 5.739 | 1820 | 1820 nM | – | Yes | – | – | – | – |
| CCNc1cc(=O)[nH]c2ccc(Nc3ccnc(Cl)c3C#N)cc12 [Compound 8f, 2-Chloro-4-((4-(ethylamino)-2-oxo-1,2-dihydroquinolin-6-yl)amino)nicotinonitrile] | – | 1660 nM and 680 nM and 1950 nM and 1130 nM and 1050 nM and 1910 nM | 5.883 | 1310 | 1310 nM | – | Yes | – | – | – | – |
| CNC(=O)C(C)Nc1cc(=O)[nH]c2ccc(Nc3ccnc(Cl)c3C#N)cc12 (stereo not drawn) [Compound 12a, 2-((6-((2-Chloro-3-cyanopyridin-4-yl)amino)-2-oxo-1,2-dihydroquinolin-4-yl)amino)-N-methylpropanamide] | 37 (≈ 14.7 µg/mL) | 620 nM and 490 nM and 580 nM and 510 nM and 660 nM and 470 nM and 460 nM and 500 nM and 740 nM and 480 nM and 650 nM | 6.26 and 6.258 | 552 | 550 nM | – | – | < 0.2 | – | – | – |
| CNC(=O)CNc1cc(=O)[nH]c2ccc(Nc3ccnc(Cl)c3C#N)cc12 [Compound 12e, 2-((6-((2-Chloro-3-cyanopyridin-4-yl)amino)-2-oxo-1,2-dihydroquinolin-4-yl)amino)-N-methylacetamide] | 35 (≈ 13.4 µg/mL) | 19900 nM and 74100 nM and 10200 nM and 22400 nM | 4.62 and 4.623 | 23800 | 23800 nM | 22800 nM | – | – | – | – | – |
| CC(Nc1cc(=O)n(C)c2ccc(Nc3ccnc(Cl)c3C#N)cc12)c1ncco1 (stereo not drawn) [Compound 13b, 2-Chloro-4-((1-methyl-4-((1-(oxazol-2-yl)ethyl)amino)-2-oxo-1,2-dihydroquinolin-6-yl)amino)nicotinonitrile] | 2.8 (≈ 1.18 µg/mL) | – | – | – | – | – | – | – | 1.0 x10^-6 cms^-1 | – | – |
| CC(Nc1cc(=O)n(C)c2ccc(Nc3ccnc(Cl)c3C#N)cc12)c1ncccn1 (stereo not drawn) [Compound 13e, 2-Chloro-4-((1-methyl-2-oxo-4-((1-(pyrimidin-2-yl)ethyl)amino)-1,2-dihydroquinolin-6-yl)amino)nicotinonitrile] | – | – | – | – | – | – | – | – | 1.4 x10^-6 cms^-1 | 1.4 | 249 (≈ 108 µg/mL) |
| Cn1c(=O)cc(NC(C)(C)c2ncccn2)c2cc(Nc3ccnc(Cl)c3C#N)ccc21 [Compound 13g, 2-Chloro-4-((1-methyl-2-oxo-4-((2-(pyrimidin-2-yl)propan-2-yl)amino)-1,2-dihydroquinolin-6-yl)amino)nicotinonitrile] | – | – | – | – | – | – | – | – | 1.8 x10^-6 cms^-1 | 1.9 | 15 (≈ 6.69 µg/mL) |
